Measured values as given in patent publication US20090162351A1, “Transdiscal administration of inhibitors of p38 MAP kinase” (DePuy Spine, Inc., priority 2007, published 2009).
Entries after “also recorded” stand apart in the source; their conditions may differ.

What was measured:
[1] = test system: bovine chondrocyte pellets / ARC tissues stimulated with IL-1β; assay: Chondrocyte pellet / ARC culture model: GAG degradation assay; type: cell-based; details: for effect on IL-1β-stimulated GAG degradation/release (in words): chondrocyte pellet / ARC model; for GAG Release, Pellet Assay (in words): Table 3B; for concentration as low as which proteoglycan degradation was inhibited: chondrocyte pellets, 10 ng/ml IL-1β, five days
Text: A chondrocyte pellet culture model was developed for in vitro high throughput screening of therapeutic compounds for inhibition of IL-1β-stimulated matrix degradation. The chondrocyte pellet culture model can be used to detect various potential therapeutic compounds effective in blocking different processes caused by IL-1β stimulation. For example, IL-1β stimulation results in increased glycosaminoglycan (GAG) degradation, prostaglandin E2 (PGE2) synthesis and total nitrite/nitrate production. Compounds with different mechanisms of action may inhibit the increase of one or two or all three of these parameters. For this reason, screening by, for example, measuring only GAG release would be limited to detection of a specific class of inhibitors and may not detect compounds with diversified mechanisms of function which may be involved in inhibition of the IL-1 stimulated inflammatory process. The development of the chondrocyte pellet culture assay system in a 96-well plate made possible large-scale screening of potential therapeutic compounds with different mechanisms of action.
Calf articular cartilage was obtained from the knee joints of eight to twelve month old animals and was processed within twenty-four hours after sacrifice. After removal of muscle and ligament, the cartilage was kept moist using phosphate buffer solution (PBS) to prevent tissue dehydration, and was aseptically peeled off from subchondral bone with a scalpel, and the cartilage pieces were further minced into smaller pieces (˜0.3-0.5×˜0.2-0.5 cm cubes). […] Chondrocytes were then enzymatically isolated from the tissue by incubation for overnight at 37° C. with gentle agitation in 0.2% collagenase in Dulbecco's modified eagle media (DMEM). After removal of tissue debris by filtration through cell strainer and the residual collagenase by 3× wash in PBS, cells were finally resuspended at a density of 2.5×10^6 cells/ml in chondrocyte medium. A 1 ml aliquot of the cell suspension was dispensed into either a 15 ml Falcon centrifuge tube or a 96 deep-well plate and centrifuged at 2000×g for five minutes. The chondrocyte pellets were incubated at 37° C. in a humidified atmosphere of 5% CO2 for two to three weeks with a medium change every other day.
As an alternative to using calf articular cartilage, a commercial Aliginate Recovered Chondrocytes (ARC) system was also used (Articular Engineering, LLC (Northbrook, Ill.)). Use of the commercial system cut down on labor and time in producing chondrocyte pellet. This system produced cartilaginous tissue in vitro using bovine chondrocytes. The first step consisted of culturing chondrocytes in alginate under conditions optimal for the formation of a cell-associated matrix (CM). The second step allowed these cells with their CM, after recovery, to rapidly form and become integrated into a solid mass of cartilage on a porous insert within two weeks.
This tissue is rich in cells surrounded by a cell-associated matrix that is degraded rapidly when the cells are exposed to IL-1. ARC tissues in 3 mm punches at delivery were first dispensed into a 96 deep-well plate, one punch per well, for compound treatment. The subsequent procedures were the same as those used for the chondrocyte pellets.
Chondrocyte pellets were washed once with 1 ml of Chondrocyte Stimulation Medium and equilibrated in the same medium at room temperature for fifteen to thirty minutes. Compounds were dissolved in H2O, Ethanol or dimethyl sulfoxide (DMSO) (10^−2 M) according to suppliers' instructions and further diluted with Chondrocyte Stimulation Medium to the required concentrations. DMSO concentrations in the culture media should not exceed 1%; this concentration of DMSO has no effect on cartilage proteoglycan metabolism in response to cytokines.
The pellets were first treated with compounds at desired concentrations at 37° C. for one hour and then incubated for three to five days in the absence or presence of 10 ng/ml of IL-1β. […]

[2] = test system: injured bovine articular cartilage explants in inflammatory medium; assay: Drop tower model: GAG degradation in injured cartilage explants; type: cell-based; parameters: inhibition of GAG release vs no treatment explant: dose or concentration left out as unconfirmed; details: for Inhibition of GAG degradation (in words): Table 4, injured cartilage explants, inflammatory conditions; for efficacy in inhibiting GAG release (in words): drop tower model; for Inhibition of GAG degradation: at 0.1-1 μM
Text: In order to assess cartilage breakdown by inflammatory mediators and the effect of antagonists on those mediators, a cartilage impact model (the “drop tower model”) was established using a drop tower device to apply a peak compressive stress to a cartilage sample of about 20-30 MPa over an area of about 11-15 mm^2. Advantages of this model included its clinical relevance due to its potential to mimic several key parameters of osteoarthritis such as inflammatory cell mediators (by co-culturing with inflammatory cells), and induction of trauma to create the cartilage damage.
In the “drop tower design model” cartilage explants were first injured and then cultured in inflammatory medium to mimic the progression of joint impact trauma linked to cartilage degeneration and osteoarthritis. The approach of the model is to artificially produce cellular damage without gross structural alterations, and to determine how the cells respond to such an insult over the ensuing days when treated with or without potential therapeutic agents.
The device comprises a vertical rail that guides a sliding weight from 0.1 kg to 3 kg directly onto a force transducer which is situated at the bottom of the device. A sphere-shaped 2 mm indenter resting on a specimen is located at the bottom of the vertical rail. The indenter is held by a stop screw. The specimen is rigidly attached to a tissue holder underneath the indenter, to avoid side movements, the specimen is rigidly attached to the tissue holder. In this manner, the force transducer transduces a force indirectly onto the specimen. Adjusting the weight of a mass and height from which the mass drops varies the magnitude of the intended impact. For example, a weight mass (e.g., […]) held by a weight holder can be released from a height of e.g., 36 cm and dropped onto the force transducer.
Samples for compound evaluation were tested using either of two different methods to induce inflammatory conditions. One method utilized media conditioned from peripheral blood mononuclear cells (PBMCs) stimulated with LPS (“+LPS”) or non-inflammatory media without LPS (“−LPS”). Another method utilized the absence or presence of a cocktail of cytokines.
In the first method, bovine or human PBMCs were freshly prepared using Ficoll gradient by Lampire Biological Laboratories, Inc. PBMCs in RPMI w/10% FCS at delivery were spun down at 1500 rpm for twenty minutes and the cell pellet was washed twice with 1×PBS to wash off the residual Ficoll. The cells were then resuspended at a density of 1×10^6/ml in RPMI supplemented with 10% FCS, 1× Antibiotics-Antimycotics. The suspension was divided into two aliquots. One aliquot was stimulated with 10 μg/ml of LPS and the other was not stimulated. Both aliquots were then incubated at 37° C., 5% CO2 for twenty-four to seventy-two hours. The conditioned media with or without LPS stimulation are collected, aliquoted, and stored in −80° C. for a maximum of three months. Each conditioned medium was assessed for levels of pro-inflammatory cytokines to ensure their secretion from PBMC. A representative cytokine, IL-6, was assayed by ELISA using a Human IL-6 Quantikine kit and it was shown that the LPS-stimulated medium had at least 10 ng/ml of IL-6, while IL-6 was undetectable in the unstimulated medium.
In the second method, the explants were cultured at 37° C., 5% CO2 either in stimulated or non-stimulated conditioned medium as described above or in defined medium containing DMEM supplemented with 1% FCS, 1× insulin-transferrin-sodium selenite media supplement and Antibiotics-Antimycotics in the presence or absence of a cocktail of cytokines containing 10 ng/ml of IL-1β, 100 ng/ml of TNFα and 5 ng/ml of IFN-γ. The compounds were solubilized in H2O, Ethanol or DMSO (10^−2 M) according to suppliers' instructions and further diluted with either conditioned medium stimulated with or without LPS to the required concentrations. DMSO concentrations in the culture media never exceeded 1%. […]

[3] = Bos taurus, Chondrocyte, read-out: GAG Release (inhibition), Pellet Assay
[4] = Bos taurus, injured cartilage explants

SMILES: C[C@H](Nc1nccc(-c2c(-c3ccc(F)cc3)nc3nc(N)ccn23)n1)c1ccccc1 [JNJ 7583979 (RWJ 351958)]
- inhibition at 1 µM ([1]; Bos taurus, Chondrocyte, at 1 μM, read-out: GAG Release (inhibition), Pellet Assay): 10%
- inhibition at 10 µM [1, 3]: 64%
- effect on IL-1β-stimulated GAG degradation/release (in words) [1]: significantly inhibited; also recorded: significant effect
- Inhibition of GAG degradation (in words) [2]: little
- efficacy in inhibiting GAG release (in words) [2]: little efficacy

SMILES: CO[C@H]1C[C@@H]2CC[C@@H](C)[C@@](O)(O2)C(=O)C(=O)N2CCCC[C@H]2C(=O)O[C@H]([C@H](C)C[C@@H]2CC[C@@H](O)[C@H](OC)C2)CC(=O)[C@H](C)/C=C(\C)[C@@H](O)[C@@H](OC)C(=O)[C@H](C)C[C@H](C)/C=C/C=C/C=C/1C [Rapamycin, reference compound]
- inhibition at 10 µM [1, 3]: 50%
- Inhibition of GAG degradation ([2]; injured cartilage explants): 100% inh at 0.1-1 μM
- inhibition of GAG release vs no treatment explant ([2]; five days): ~84%

SMILES: C[C@@H]1CN(Cc2ccc(F)cc2)[C@@H](C)CN1C(=O)c1cc2c(C(=O)C(=O)N(C)C)cn(C)c2cc1Cl [SCIO-469 (SD 469)]
- GAG Release, Pellet Assay (in words) [1]: No effect
- effect on IL-1β-stimulated GAG degradation/release (in words) [1]: no effect

SMILES: COc1ccc(-n2nc(CCC(=O)N(C)O)cc2-c2ccc(Cl)cc2)cc1 [Tepoxalin, reference compound]
- inhibition at 10 µM [1, 3]: 15%
- inhibition at 10 µM [2, 4]: 100%

SMILES: Cc1ccc(C(=O)c2ccc(CC(=O)O)n2C)cc1 [Tolmetin, reference compound]
- GAG Release, Pellet Assay (in words) [1]: No effect
- inhibition at 10 µM [2, 4]: 60%

SMILES: CC(=O)Oc1cccc2c1C(=O)c1c(OC(C)=O)cc(C(=O)O)cc1C2=O [Diacerein, reference compound]
- concentration as low as which proteoglycan degradation was inhibited [1]: 0.054 µM
- inhibitory effect for GAG vs lower concentrations (in words) ([1]; diacerein at 5.4 μM, rhein at 3.5 μM): weaker inhibitory effect
- inhibition at 54 µM ([2]; Bos taurus, at 54 μM, injured cartilage explants): 100%
- proteoglycan degradation in injured cartilage induced by inflammatory mediators (in words) ([2]; at high dosage, LPS-stimulated PBMC conditioned medium, five days): completely inhibited

SMILES: C[C@@H]1CN(Cc2ccc(F)cc2)[C@@H](C)CN1C(=O)c1cc2cc(C(=O)C(=O)N(C)C)[nH]c2cc1Cl [SCIO-282 (SD 282)]
- GAG Release, Pellet Assay (in words) [1]: No effect
- effect on IL-1β-stimulated GAG degradation/release (in words) [1]: little effect

SMILES: CC(C(=O)O)c1ccc(C(=O)c2cccs2)cc1 (stereo not drawn) [Suprofen, reference compound]
- GAG Release, Pellet Assay (in words) [1]: No effect
- Inhibition of GAG degradation ([2]; injured cartilage explants): 100% inh at 0.1-1 μM

SMILES: OCCC#Cc1nc(-c2ccc(F)cc2)c(-c2ccncc2)n1CCCc1ccccc1 [JNJ 3026582 (RWJ 67657), 4-[4-(4-fluorophenyl)-1-(3-phenylpropyl)-5-(4-pyridinyl)-1H-imidazol-2-yl]-3-butyn-1-ol]
- inhibition at 10 µM [1, 3]: ~90%
- effect on IL-1β-stimulated GAG degradation/release (in words) [1]: significantly inhibited; also recorded: significant effect
- Inhibition of GAG degradation (in words) [2]: little
- efficacy in inhibiting GAG release (in words) [2]: little efficacy

SMILES: CC(=O)N1CCN(c2c(-c3ccncc3)c(-c3ccc(F)cc3)c(C#N)n2C)CC1 [JNJ 17089540 (RWJ 669307)]
- GAG Release, Pellet Assay (in words) [1]: No effect
- effect on IL-1β-stimulated GAG degradation/release (in words) [1]: little effect

SMILES: O=C(O)c1cc(O)c2c(c1)C(=O)c1cccc(O)c1C2=O [Rhein, reference compound]
- concentration as low as which proteoglycan degradation was inhibited [1]: 0.035 µM
- inhibition at 35 µM ([2]; Bos taurus, at 35 μM, injured cartilage explants): 100%
